Experimental data published in the supplement of paper PMC7214452.

What was measured:
Test in all cases: normalized area under the dose-response curve (viability relative to DMSO control) (fraction); higher = less sensitive (more viable cells)
Conditions in all cases: exposure time not given
U266 (cancer type: MM) = tested on: U266 (cancer type: MM)
Experimental: (§1)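 25 myeloma and 15 non-Hodgkin lymphoma cell lines were exposed to each of 76 drugs as 7-point log dilutions (0.01 nM–10 µM) in duplicate. Viability was read with CellTiter-Glo and normalised to DMSO (0.1%) and staurosporine (10 µM) plate controls. Normalised AUC was calculated by the trapezoidal method relative to the negative control.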

[1] = tested on: SU-DHL2 (cancer type: DLBCL)
Experimental: as §1

SKMM2 (cancer type: MM) = tested on: SKMM2 (cancer type: MM)
Experimental: as §1

KMS11 (cancer type: MM) = tested on: KMS11 (cancer type: MM)
Experimental: as §1

Se-Ax (cancer type: TCL) = tested on: Se-Ax (cancer type: TCL)
Experimental: as §1

MM1.S (cancer type: MM) = tested on: MM1.S (cancer type: MM)
Experimental: as §1

EJM (cancer type: MM) = tested on: EJM (cancer type: MM)
Experimental: as §1

[2] = tested on: JeKo-1 (cancer type: Mantle)
Experimental: as §1

[3] = tested on: JVM2 (cancer type: Mantle)
Experimental: as §1

LP1 (cancer type: MM) = tested on: LP1 (cancer type: MM)
Experimental: as §1

[4] = tested on: SU-DHL1 (cancer type: TCL)
Experimental: as §1

AMO1 (cancer type: MM) = tested on: AMO1 (cancer type: MM)
Experimental: as §1

KMS26 (cancer type: MM) = tested on: KMS26 (cancer type: MM)
Experimental: as §1

JJN3 (cancer type: MM) = tested on: JJN3 (cancer type: MM)
Experimental: as §1

[5] = tested on: NCI-H929 (cancer type: MM)
Experimental: as §1

[6] = tested on: SR-786 (cancer type: TCL)
Experimental: as §1

OPM2 (cancer type: MM) = tested on: OPM2 (cancer type: MM)
Experimental: as §1

[7] = tested on: Karpas-299 (cancer type: TCL)
Experimental: as §1

[8] = tested on: RPMI 8226 (cancer type: MM)
Experimental: as §1

FR4 (cancer type: MM) = tested on: FR4 (cancer type: MM)
Experimental: as §1

KMS34 (cancer type: MM) = tested on: KMS34 (cancer type: MM)
Experimental: as §1

[9] = tested on: OCI-LY19 (cancer type: DLBCL)
Experimental: as §1

L363 (cancer type: MM) = tested on: L363 (cancer type: MM)
Experimental: as §1

[10] = tested on: KMS28PE (cancer type: MM)
Experimental: as §1

[11] = tested on: HuT 78 (cancer type: TCL)
Experimental: as §1

KMS18 (cancer type: MM) = tested on: KMS18 (cancer type: MM)
Experimental: as §1

[12] = tested on: OCI-MY5/CRBN (cancer type: MM)
Experimental: as §1

MM1.R (cancer type: MM) = tested on: MM1.R (cancer type: MM)
Experimental: as §1

[13] = tested on: Mino (cancer type: Mantle)
Experimental: as §1

[14] = tested on: OCI-MY5/Vec (cancer type: MM)
Experimental: as §1

[15] = tested on: OCI-MY5 (cancer type: MM)
Experimental: as §1

[16] = tested on: OCI-LY1 (cancer type: DLBCL)
Experimental: as §1

[17] = tested on: OCI-LY3 (cancer type: DLBCL)
Experimental: as §1

XG2 (cancer type: MM) = tested on: XG2 (cancer type: MM)
Experimental: as §1

[18] = tested on: OCI-MY7 (cancer type: MM)
Experimental: as §1

[19] = tested on: KMS28BM (cancer type: MM)
Experimental: as §1

My-La (cancer type: TCL) = tested on: My-La (cancer type: TCL)
Experimental: as §1

[20] = tested on: SU-DHL6 (cancer type: DLBCL)
Experimental: as §1

[21] = tested on: Granta-519 (cancer type: Mantle)
Experimental: as §1

[22] = tested on: KMS12PE (cancer type: MM)
Experimental: as §1

| Compound | normalized area under the dose-response curve (U266 (cancer type: MM)) | normalized area under the dose-response curve [1] | normalized area under the dose-response curve (SKMM2 (cancer type: MM)) | normalized area under the dose-response curve (KMS11 (cancer type: MM)) | normalized area under the dose-response curve (Se-Ax (cancer type: TCL)) | normalized area under the dose-response curve (MM1.S (cancer type: MM)) | normalized area under the dose-response curve (EJM (cancer type: MM)) | normalized area under the dose-response curve [2] | normalized area under the dose-response curve [3] | normalized area under the dose-response curve (LP1 (cancer type: MM)) | normalized area under the dose-response curve [4] | normalized area under the dose-response curve (AMO1 (cancer type: MM)) | normalized area under the dose-response curve (KMS26 (cancer type: MM)) | normalized area under the dose-response curve (JJN3 (cancer type: MM)) | normalized area under the dose-response curve [5] | normalized area under the dose-response curve [6] | normalized area under the dose-response curve (OPM2 (cancer type: MM)) | normalized area under the dose-response curve [7] | normalized area under the dose-response curve [8] | normalized area under the dose-response curve (FR4 (cancer type: MM)) | normalized area under the dose-response curve (KMS34 (cancer type: MM)) | normalized area under the dose-response curve [9] | normalized area under the dose-response curve (L363 (cancer type: MM)) | normalized area under the dose-response curve [10] | normalized area under the dose-response curve [11] | normalized area under the dose-response curve (KMS18 (cancer type: MM)) | normalized area under the dose-response curve [12] | normalized area under the dose-response curve (MM1.R (cancer type: MM)) | normalized area under the dose-response curve [13] | normalized area under the dose-response curve [14] | normalized area under the dose-response curve [15] | normalized area under the dose-response curve [16] | normalized area under the dose-response curve [17] | normalized area under the dose-response curve (XG2 (cancer type: MM)) | normalized area under the dose-response curve [18] | normalized area under the dose-response curve [19] | normalized area under the dose-response curve (My-La (cancer type: TCL)) | normalized area under the dose-response curve [20] | normalized area under the dose-response curve [21] | normalized area under the dose-response curve [22] |
| --- | --- | --- | --- | --- | --- | --- | --- | --- | --- | --- | --- | --- | --- | --- | --- | --- | --- | --- | --- | --- | --- | --- | --- | --- | --- | --- | --- | --- | --- | --- | --- | --- | --- | --- | --- | --- | --- | --- | --- | --- |
| CC(C)C[C@H](NC(=O)[C@H](CCc1ccccc1)NC(=O)CN1CCOCC1)C(=O)N[C@@H](Cc1ccccc1)C(=O)N[C@@H](CC(C)C)C(=O)[C@@]1(C)CO1 [Carfilzomib] | 0.177 | 0.0281 | 0.264 | 0.128 | 0.113 | 0.11 | 0.104 | 0.0922 | 0.0748 | 0.225 | 0.157 | 0.0997 | 0.0786 | 0.356 | 0.12 | 0.25 | 0.187 | 0.25 | 0.285 | 0.638 | 0.147 | 0.0752 | 0.095 | 0.11 | 0.32 | 0.0656 | 0.0124 | 0.07 | 0.0636 | 0.0171 | 0.105 | 0.0418 | 0.0311 | 0.0918 | 0.11 | 0.0754 | 0.19 | 0.387 | 0.094 | 0.18 |
| Cc1cc(Nc2ncc(Cl)c(Nc3ccccc3S(=O)(=O)C(C)C)n2)c(OC(C)C)cc1C1CCNCC1 [Ceritinib] | 0.413 | 0.926 | 0.348 | 0.344 | 0.442 | 0.32 | 0.502 | 0.885 | 0.899 | 0.365 | 0.0824 | 0.355 | 0.677 | 0.281 | 0.42 | 0.657 | 0.193 | 0.61 | 0.303 | 0.403 | 0.0994 | 0.85 | 0.352 | 0.161 | 0.534 | 0.487 | 0.622 | 0.29 | 0.837 | 0.539 | 0.261 | 0.966 | 0.813 | 0.372 | 0.63 | 0.276 | 0.828 | 0.877 | 0.962 | 0.54 |
| Nc1nc(Cl)nc2c1ncn2[C@H]1C[C@H](O)[C@@H](CO)O1 [Cladribine] | 0.918 | 0.861 | 0.763 | 0.854 | 0.627 | 0.49 | 0.555 | 0.185 | 0.748 | 0.762 | 0.167 | 0.672 | 0.795 | 0.993 | 0.52 | 0.766 | 0.984 | 0.89 | 0.939 | 1.01 | 0.734 | 0.919 | 0.826 | 0.533 | 0.825 | 0.798 | 0.961 | 0.56 | 0.27 | 0.89 | 0.929 | 0.884 | 0.311 | 0.452 | 0.79 | 0.768 | 0.813 | 0.843 | 0.523 | 0.84 |
| Nc1nc(Cl)nc2c1ncn2[C@@H]1O[C@H](CO)[C@@H](O)[C@@H]1F [Clofarabine] | 0.595 | 0.662 | 0.728 | 0.578 | 0.451 | 0.36 | 0.477 | 0.138 | 0.594 | 0.686 | 0.236 | 0.489 | 0.592 | 0.559 | 0.43 | 0.851 | 0.871 | 0.759 | 0.727 | 0.973 | 0.536 | 0.472 | 0.667 | 0.422 | 0.727 | 0.794 | 0.927 | 0.45 | 0.274 | 0.807 | 0.915 | 0.5 | 0.119 | 0.346 | 0.74 | 0.617 | 0.685 | 0.573 | 0.35 | 0.66 |
| O=C(c1ccc(F)c(F)c1Nc1ccc(I)cc1F)N1CC(O)([C@@H]2CCCCN2)C1 [Cobimetinib] | 0.767 | 0.873 | 0.813 | 0.722 | 0.538 | 0.69 | 0.54 | 0.878 | 0.724 | 0.634 | 0.383 | 0.392 | 0.766 | 0.742 | 0.6 | 0.808 | 0.629 | 0.842 | 0.736 | 0.696 | 0.494 | 0.923 | 0.556 | 0.608 | 0.807 | 0.588 | 0.822 | 0.65 | 0.887 | 0.843 | 0.587 | 0.996 | 0.9 | 0.501 | 0.68 | 0.731 | 0.857 | 0.83 | 0.888 | 0.75 |
| CC1(COc2ccc3c(c2)ncn3-c2ccc3cccc(N4CCC(N)CC4)c3n2)COC1 [Crenolanib] | 0.426 | 0.949 | 0.663 | 0.488 | 0.594 | 0.52 | 0.436 | 0.746 | 0.672 | 0.409 | 0.49 | 0.325 | 0.616 | 0.481 | 0.45 | 0.879 | 0.452 | 0.855 | 0.464 | 0.59 | 0.423 | 0.861 | 0.459 | 0.407 | 0.569 | 0.45 | 0.549 | 0.53 | 0.818 | 0.541 | 0.269 | 0.704 | 0.773 | 0.339 | 0.53 | 0.46 | 0.779 | 0.894 | 0.91 | 0.53 |
| C[C@@H](Oc1cc(-c2cnn(C3CCNCC3)c2)cnc1N)c1c(Cl)ccc(F)c1Cl [Crizotinib] | 0.335 | 0.833 | 0.487 | 0.423 | 0.368 | 0.4 | 0.471 | 0.677 | 0.654 | 0.465 | 0.0611 | 0.362 | 0.577 | 0.405 | 0.39 | 0.406 | 0.457 | 0.437 | 0.34 | 0.509 | 0.306 | 0.733 | 0.447 | 0.323 | 0.359 | 0.456 | 0.75 | 0.44 | 0.731 | 0.703 | 0.381 | 0.817 | 0.765 | 0.338 | 0.73 | 0.358 | 0.744 | 0.831 | 0.769 | 0.54 |
| O=P1(N(CCCl)CCCl)NCCCO1 (stereo not given) [Cyclophosphamide] | 0.862 | 0.929 | 0.949 | 0.822 | 0.865 | 0.9 | 0.93 | 0.915 | 0.943 | 0.977 | 0.937 | 0.884 | 0.956 | 0.95 | 0.93 | 0.911 | 0.912 | 0.931 | 0.887 | 0.918 | 0.791 | 0.983 | 0.831 | 0.863 | 0.928 | 0.944 | 0.972 | 0.88 | 0.907 | 0.86 | 0.913 | 0.958 | 0.885 | 0.878 | 0.92 | 0.923 | 0.962 | 0.969 | 1 | 0.91 |
